Here are results for 1 molecule from patent publication US20260144797A1, “METHODS OF REDUCING OR PREVENTING METASTASES” (FOGHORN THERAPEUTICS INC., priority 2022, published 2026).

Holding throughout (assay type): in vivo
In assay [1] the test system is uveal melanoma (UM) CDX models MP-41 and MP-46. The experiment in a line: Differential gene expression by RNA-seq in UM CDX models (Example 1). The settings on record: MP-41 and MP-46 CDX; 0.5-3 mpk QD or BID; 5 days; RNA-seq (FIG. 3). As for the experimental part: Uveal melanoma can be classified into Class 1 or Class 2 tumors based on the DecisionDx®-UM gene expression profiling (GEP) test, a widely used prognostic test to predict individual risk of metastasis in patients with uveal melanoma. Class 1 and 2 tumors are associated with low and high risk of metastasis, respectively. Gene expression profiling (GEP) Class 2 (dark blue), GEP Class 1 (light blue), PRAME (green), and BAP1 (orange) expression were measured in three uveal melanoma (UM) CDX models: 92-1, MP-41, and MP-46 (FIG. 2). GEP class 1 and GEP class 2 are defined in FIG. 1.
Differential gene expression was measured by RNA-seq in two uveal melanoma (UM) CDX models: MP-41 and MP-46 (FIG. 3). UM CDX model MP-41 was divided into four cohorts—cohort one was treated with 0.5 mpk of Compound A twice a day (BID), cohort two was treated with 1 mpk of Compound A once a day (QD), cohort three was treated with 1 mpk of Compound A twice a day, and cohort 4 was treated with 2 mpk of Compound A once a day. UM CDX model MP-46 was divided into six cohorts —cohort one was treated with 0.5 mpk of Compound A twice a day (BID), cohort two was treated with 1 mpk of Compound A once a day (QD), cohort three was treated with 0.75 mpk of Compound A twice a day, cohort 4 was treated with 1.5 mpk of Compound A once a day, cohort five was treated with 1.5 mpk of Compound A twice a day, and cohort six was treated with 3 mpk of Compound A twice a day. All treatments ended at 5 days, and animals were sacrificed. GEP Class 1 (green) comprises 8 genes that are high in Class 1 (low risk), and GEP Class 2 (blue) comprises 4 genes that are high in Class 2 (higher risk). PRAME (grey) positivity is associated with poor prognosis in several malignancies, including UM.

For assay [2], the system named is uveal melanoma (UM) CDX model MP-41. Briefly: Differential gene expression by RNA-seq in UM CDX model MP-41 (Example 2). The settings on record: MP-41 CDX; 0.5-2 mpk QD or BID; 4 or 5 days; RNA-seq (FIG. 4). As for the experimental part:
Differential gene expression was measured by RNA-seq in uveal melanoma (UM) CDX model: MP-41 (FIG. 4). This CDX model is a BAP1 intact but aggressive uveal melanoma model. UM CDX model MP-41 was divided into four cohorts—cohort one was treated with 0.5 mpk of Compound A twice a day (BID), cohort two was treated with 1 mpk of Compound A once a day (QD), cohort three was treated with 1 mpk of Compound A twice a day, and cohort 4 was treated with 2 mpk of Compound A once a day. All treatments ended at 4 or 5 days, and animals were sacrificed.

Assay [3] relates to uveal melanoma (UM) CDX models 92-1, MP-41, and MP-46. The experiment in a line: Differential gene expression by RNA-seq, MITF/SOX10 pathway (Example 3). The settings on record: 92.1 and MP-46: 1.5 mpk QD, 6 days; MP-41: 2 mpk daily, 4 days; RNA-seq (FIG. 5). The protocol:
Differential gene expression was measured by RNA-seq in three uveal melanoma (UM) CDX models: 92-1, MP-41, and MP-46 (FIG. 5 and FIG. 6). UM CDX models 92.1 and MP-46 were treated with 1.5 mpk of Compound A, daily (QD), for 6 days, and then animals were sacrificed (FIG. 5). UM CDX model MP-41 was treated with 2 mpk of Compound A, daily, for 4 days, and then animals were sacrificed (FIG. 5). Expression of SOX10, MITF (PD markers) and their downstream targets: melanin pathway markers MLANA, PMEL, and TYR were analyzed. Cyclin D1 is a cell proliferation marker, and BRM and BRG1 were analyzed for candidate selection.

The test system of a further assay is MP-41 CDX tumor. Briefly: Immunohistochemistry of MP-41 CDX tumor slices. As for the experimental part: Representative MP-41 CDX tumor slices were analyzed after 5 days of treatment with 2 mpk of Compound A (OnTx) or a Vehicle (Veh), administered daily (FIGS. 7A and 7B).
Setting [4] is: MP-41 xenograft studies (FIGS. 7A and 7B).

The structures appear in SMILES notation.

Regarding `COC[C@@H](NC(=O)c1ccn(S(C)(=O)=O)c1)C(=O)Nc1nc(-c2cccc(N3C[C@@H](C)O[C@@H](C)C3)n2)cs1` (stereo in doubt) [Compound A, N-(1-((4-(6-(2,6-dimethylmorpholino)pyridin-2-yl)thiazol-2-yl)amino)-3-methoxy-1-oxopropan-2-yl)-1-(methylsulfonyl)-1H-pyrrole-3-carboxamide], in assay [1], the “DecisionDx-UM Gene Expression Profile (GEP)” value is recorded as “positive shift”, the PRAME expression result is “decrease” and the “higher risk profile Class 2 genes expression” value is given as “decrease”. Moreover, in assay [2], the BAP1 expression result was “subtle upregulation”, the GDF15 expression entry was “dose-dependent downregulation” and the PROS1 expression entry is “dose-dependent downregulation”. In addition, in assay [3], the MITF expression result is listed as “sustained downregulation”; the SOX10 expression entry is reported as “sustained downregulation”; the “melanoma-specific downstream targets of MITF and SOX10, expression” value was “sustained downregulation”. Moreover, in the assay on MP-41 CDX tumor (MP-41 CDX, 2 mpk daily, 5 days (FIGS. 7A and 7B)), the “proliferation marker Cyclin D1 (IHC)” value was “decreases with treatment”. In addition, in the assay with MP-41 CDX tumor (setting [4]), the “melanin pathway markers downstream of MITF/SOX10 signaling (IHC)” value was “Decrease” and the “proliferation markers (IHC)” value is given as “Decrease”.
